Experimental data taken from article PMC5515969, “Effects of 31 FDA approved small-molecule kinase inhibitors on isolated rat liver mitochondria” (Archives of Toxicology, 2016).
Like-named read-outs stand apart in the source and are kept apart here.

What was measured:
[1] = tested on: isolated rat liver mitochondria; assay: Mitochondrial oxygen consumption (glutamate/malate or succinate driven, state 4 and state 3); assay type: biochemical; settings: DMSO treated samples set as 1; as to State 3 respiration driven by succinate at 10XCmax: key: 0 indicates that the drug had no effects (negative); as to State 3 respiration driven by succinate at 1XCmax: key: 0 indicates that the drug had no effects (negative)
How it was run: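 Rat liver mitochondria (1 mg/ml protein) exposed 5 min to kinase inhibitors in 0.1% DMSO, then O2 consumption measured by Clark-type electrode with glutamate/malate or succinate (state 4), ADP added after 3 min (state 3). Rates normalized to 0.1% DMSO controls set to 1.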

RCC I = RCC I activity in submitochondrial particles; assay type: biochemical, rat; design: key to RCC I at 10XCmax / RCC I at 100XCmax / RCC I at 50XCmax / RCC I at 30XCmax / RCC I at 20XCmax: activity relative to DMSO-treated controls (control set as 1 = 100%); settings: 10XCmax; DMSO treated samples set as 1
How it was run: (§1)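 Inhibitors preincubated 15 min with submitochondrial particles (1 mg/ml) before activity readout. RCC I (rotenone-sensitive fraction) and I/V: A340, and RCC II: A600, each every 1 min for 6 min; RCC III/IV: A550 every 10 s for 2 min. Activities relative to DMSO control set as 1.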

RCC II = biological target: T1, RCC II (Rattus norvegicus, UniProt P21913+Q641Z9+Q6PCT8+Q920L2); assay: RCC II activity in submitochondrial particles; assay type: biochemical; design: key: activity relative to DMSO-treated controls (control set as 1 = 100%); settings: DMSO treated samples set as 1
T1 construct: Submitochondrial particles were prepared by subjecting the intact mitochondria to three successive freeze–thaw cycles; from tissue; host or cells: rat liver mitochondria, used as submitochondrial particles
How it was run: as §1

RCC III = RCC III activity in submitochondrial particles; assay type: biochemical, rat; design: key to RCC III at 100XCmax: activity relative to DMSO-treated controls (control set as 1 = 100%); settings: 100XCmax
How it was run: as §1

RCC V = RCC V activity in submitochondrial particles; assay type: biochemical, rat; settings: DMSO treated samples set as 1; as to RCC V at 5XCmax: key: 0 indicates that the drug had no effects (negative)
How it was run: as §1

[2] = tested on: isolated rat liver mitochondria; assay: Mitochondrial inner membrane potential (MMP), Rhodamine 123; assay type: biochemical; settings: difference in signal between KI and DMSO treated samples at the end of experiments
From the text: Fig. 3 KI effects on mitochondrial inner membrane potential (MMP). […] In a, c, data are means and standard derivations from three separate experiments. *p < 0.05 as compared to DMSO-treated samples at the end of experiments. In b, data are means of two independent experiments

[3] = tested on: isolated rat liver mitochondria; settings: positive control alamethicin treated samples
[4] = cited from earlier work
[5] = tested on: isolated rat liver mitochondria; assay: Mitochondrial ROS production (CM-H2DCFDA); settings: DMSO treated samples set as 1

T1 sequence (Q920L2 35-656): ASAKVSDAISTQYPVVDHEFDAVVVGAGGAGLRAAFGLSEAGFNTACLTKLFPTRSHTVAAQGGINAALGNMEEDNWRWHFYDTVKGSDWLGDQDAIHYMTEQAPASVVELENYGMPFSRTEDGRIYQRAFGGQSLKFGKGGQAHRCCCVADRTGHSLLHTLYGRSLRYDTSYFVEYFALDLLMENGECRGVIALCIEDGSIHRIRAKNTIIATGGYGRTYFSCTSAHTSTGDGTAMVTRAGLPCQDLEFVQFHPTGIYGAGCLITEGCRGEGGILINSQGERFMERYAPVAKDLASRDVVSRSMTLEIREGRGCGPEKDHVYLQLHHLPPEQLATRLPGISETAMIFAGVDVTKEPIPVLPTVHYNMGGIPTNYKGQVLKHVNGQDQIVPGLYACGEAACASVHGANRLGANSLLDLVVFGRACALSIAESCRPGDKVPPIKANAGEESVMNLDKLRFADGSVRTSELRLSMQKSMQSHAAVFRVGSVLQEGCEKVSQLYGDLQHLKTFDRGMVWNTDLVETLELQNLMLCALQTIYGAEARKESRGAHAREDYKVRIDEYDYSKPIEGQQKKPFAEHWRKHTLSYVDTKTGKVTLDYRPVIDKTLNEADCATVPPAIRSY
T1 sequence (P21913 31-282): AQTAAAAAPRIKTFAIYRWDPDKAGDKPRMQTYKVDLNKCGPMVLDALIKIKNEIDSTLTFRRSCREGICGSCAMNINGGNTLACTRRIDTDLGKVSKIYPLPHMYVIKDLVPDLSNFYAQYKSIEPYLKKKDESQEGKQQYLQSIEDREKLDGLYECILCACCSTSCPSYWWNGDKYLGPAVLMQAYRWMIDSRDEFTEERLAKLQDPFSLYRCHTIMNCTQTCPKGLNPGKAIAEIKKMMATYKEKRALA
T1 sequence (Q641Z9 1-169): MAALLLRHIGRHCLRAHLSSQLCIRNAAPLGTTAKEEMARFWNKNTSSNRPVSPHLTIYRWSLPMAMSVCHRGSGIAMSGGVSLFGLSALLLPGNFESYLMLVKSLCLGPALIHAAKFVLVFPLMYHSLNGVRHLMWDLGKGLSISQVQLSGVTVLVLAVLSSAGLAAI
T1 sequence (Q6PCT8 57-159): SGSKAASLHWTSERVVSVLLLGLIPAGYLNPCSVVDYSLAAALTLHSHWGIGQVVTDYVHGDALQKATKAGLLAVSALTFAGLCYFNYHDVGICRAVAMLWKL

## COC(=O)c1ccc2c(c1)NC(=O)/C2=C(\Nc1ccc(N(C)C(=O)CN2CCN(C)CC2)cc1)c1ccccc1 [Nintedanib]
[1]; 1XCmax
  State 3 respiration driven by glutamate/malate at 1XCmax: 0
  State 3 respiration driven by succinate at 1XCmax: 0
  State 4 respiration driven by glutamate/malate at 1XCmax: 0
  State 4 respiration driven by succinate at 1XCmax: 0
[1]; 2.5XCmax
  State 3 respiration driven by glutamate/malate at 2.5XCmax: 0
  State 3 respiration driven by succinate at 2.5XCmax: 0
  State 4 respiration driven by glutamate/malate at 2.5XCmax: 0
  State 4 respiration driven by succinate at 2.5XCmax: 0
[1]; 5XCmax
  State 3 respiration driven by glutamate/malate at 5XCmax: 0
  State 3 respiration driven by succinate at 5XCmax: 0
  State 4 respiration driven by glutamate/malate at 5XCmax: 0
  State 4 respiration driven by succinate at 5XCmax: 0
[1]; 10XCmax
  State 3 respiration driven by glutamate/malate at 10XCmax: 0
  State 3 respiration driven by succinate at 10XCmax: 0
  State 4 respiration driven by glutamate/malate at 10XCmax: 0
  State 4 respiration driven by succinate at 10XCmax: 0
[1]; 20XCmax
  State 3 respiration driven by glutamate/malate at 20XCmax: 0
  State 3 respiration driven by succinate at 20XCmax: 0
  State 4 respiration driven by glutamate/malate at 20XCmax: 0
  State 4 respiration driven by succinate at 20XCmax: 0
[1]; 30XCmax
  State 3 respiration driven by glutamate/malate at 30XCmax: 0
  State 3 respiration driven by succinate at 30XCmax: 0
  State 4 respiration driven by glutamate/malate at 30XCmax: 0
  State 4 respiration driven by succinate at 30XCmax: 0
[1]; 50XCmax
  State 3 respiration driven by glutamate/malate at 50XCmax: 0
  State 3 respiration driven by succinate at 50XCmax: 0
  State 4 respiration driven by glutamate/malate at 50XCmax: 0
  State 4 respiration driven by succinate at 50XCmax: 0
[1]; 100XCmax
  State 3 respiration driven by glutamate/malate at 100XCmax: 0
  State 3 respiration driven by succinate at 100XCmax: 0
  State 4 respiration driven by glutamate/malate at 100XCmax: 0
  State 4 respiration driven by succinate at 100XCmax: 0
RCC I
  RCC I at 10XCmax: 0
RCC II; 1.0XCmax
  RCC II at 1.0XCmax: 0
RCC II; 2.5XCmax
  RCC II at 2.5XCmax: 0
RCC II; 5XCmax
  RCC II at 5XCmax: 0
RCC II; 10XCmax
  RCC II at 10XCmax: 0
RCC II; 20XCmax
  RCC II at 20XCmax: 0
RCC II; 30XCmax
  RCC II at 30XCmax: 0
RCC II; 50XCmax
  RCC II at 50XCmax: 0
RCC II; 100XCmax
  RCC II at 100XCmax: 0
RCC III
  RCC III at 100XCmax: 0
RCC V; 5XCmax
  RCC V at 5XCmax: 0
RCC V; 50XCmax
  RCC V at 50XCmax: 0
[2]; 1XCmax
  MMP measured by Rhodamine 123 at 1XCmax: 0
[2]; 2.5XCmax
  MMP measured by Rhodamine 123 at 2.5XCmax: 0
[2]; 5XCmax
  MMP measured by Rhodamine 123 at 5XCmax: 0
[2]; 10XCmax
  MMP measured by Rhodamine 123 at 10XCmax: 0
[2]; 20XCmax
  MMP measured by Rhodamine 123 at 20XCmax: 0
[2]; 30XCmax
  MMP measured by Rhodamine 123 at 30XCmax: 0
[2]; 50XCmax
  MMP measured by Rhodamine 123 at 50XCmax: 0
[2]; 100XCmax
  MMP measured by Rhodamine 123 at 100XCmax: 0
[3]; 1XCmax
  Cytochrome c release 1XCmax: 0
[3]; 2.5XCmax
  Cytochrome c release 2.5XCmax: 0
[3]; 5XCmax
  Cytochrome c release 5XCmax: 0
[3]; 10XCmax
  Cytochrome c release 10XCmax: 0
[3]; 20XCmax
  Cytochrome c release 20XCmax: 0
[3]; 30XCmax
  Cytochrome c release 30XCmax: 0
[3]; 50XCmax
  Cytochrome c release 50XCmax: 0
[3]; 100XCmax
  Cytochrome c release 100XCmax: 0
[4]; human therapeutic Cmax at FDA recommended dosages, ref product labeling and drug approval packages at the official FDA website
  Cmax: 0.06 µM
[4]; human therapeutic maximal blood concentration, ref product labeling
  Cmax (ng or µg/ml): 0.0349 µg/mL
[4]; read-out: Cmax at µM, human therapeutic maximal blood concentration, ref product labeling
  Cmax: 0.06 µM
[5]; 1XCmax
  ROS measured by CM-H2DCFDA at 1XCmax: 0
[5]; 2.5XCmax
  ROS measured by CM-H2DCFDA at 2.5XCmax: 0
[5]; 5XCmax
  ROS measured by CM-H2DCFDA at 5XCmax: 0
[5]; 10XCmax
  ROS measured by CM-H2DCFDA at 10XCmax: 0
[5]; 20XCmax
  ROS measured by CM-H2DCFDA at 20XCmax: 0
[5]; 30XCmax
  ROS measured by CM-H2DCFDA at 30XCmax: 0
[5]; 50XCmax
  ROS measured by CM-H2DCFDA at 50XCmax: 0
[5]; 100XCmax
  ROS measured by CM-H2DCFDA at 100XCmax: 0
